How the values were obtained:
[1] = Inhibition of platelet aggregation using adenosine diphosphate (ADP) as activating agent in human platelet rich plasma (PRP)
[2] = Inhibition of ADP-induced platelet aggregation in rabbit platelet rich plasma (PRP)
[3] = Inhibition of platelet aggregation using Adenosine diphosphate (ADP) as activating agent in rabbit platelet rich plasma (PRP)
[4] = as above; remark: listed apart in the source
[5] = Inhibition of platelet aggregation using adenosine diphosphate (ADP) as activating agent in human platelet rich plasma PRP
P2Y purinoceptor 12 = P2Y purinoceptor 12 (Homo sapiens, UniProt Q9H244); experiment: Inhibition of platelet aggregation using adenosine diphosphate (ADP) as activating agent in human platelet rich plasma (PRP)
Sequence of P2Y purinoceptor 12 (Q9H244 whole entry): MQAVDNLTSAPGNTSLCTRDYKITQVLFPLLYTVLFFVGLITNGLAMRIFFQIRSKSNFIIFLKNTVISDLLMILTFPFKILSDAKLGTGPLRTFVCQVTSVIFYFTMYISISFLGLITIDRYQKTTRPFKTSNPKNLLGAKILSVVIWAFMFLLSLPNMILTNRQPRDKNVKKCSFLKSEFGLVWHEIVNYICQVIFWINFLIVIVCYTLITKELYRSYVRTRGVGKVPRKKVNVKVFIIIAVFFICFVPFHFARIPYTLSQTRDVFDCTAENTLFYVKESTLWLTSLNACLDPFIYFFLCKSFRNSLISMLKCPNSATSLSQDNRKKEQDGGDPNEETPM

Row | EC50 [1] | EC50 [3] | EC50 [4] | Structure (SMILES) | other results
1 | 1.1 µM |  | 0.21 µM | CN(C(=O)CCCCc1ccc2nc3[nH]c(=O)[nH]c3cc2c1)C1CCCCC1 | 
2 |  | 3.17 µM |  | O=C(O)CCCCCOc1ccc2nc3[nH]c(=O)[nH]c3cc2c1 | 
3 | > 100 µM |  | 6.32 µM | O=c1[nH]c2cc3cc(OCCCc4nnn[nH]4)ccc3nc2[nH]1 | 
4 |  | 0.77 µM |  | O=c1[nH]c2cc3cc(OCCCO)ccc3nc2[nH]1 | 
5 |  | 10.9 µM |  | Cn1c(=O)[nH]c2nc3ccc(OCCCC(=O)N4CCCCC4)cc3cc21 | 
6 |  | 1.4 µM |  | CC(=O)CCCOc1ccc2nc3[nH]c(=O)[nH]c3cc2c1 | 
7 |  | 0.95 µM |  | COC(=O)CCCCOc1ccc2nc3[nH]c(=O)[nH]c3cc2c1 | 
8 |  | 0.09 µM |  | COC(=O)CCCCCOc1ccc2nc3[nH]c(=O)[nH]c3cc2c1 | 
9 | 0.54 µM |  | 0.14 µM | CN(C(=O)CCCCOc1ccc2nc3[nH]c(=O)n(C)c3cc2c1)C1CCCCCC1 | 
10 |  | 0.87 µM |  | CC(=O)OCCOc1ccc2nc3[nH]c(=O)[nH]c3cc2c1 | 
11 | > 100 µM |  | 6.91 µM | O=C(O)CCCOc1ccc2c(c1)CN1CC(=O)NC1=N2 | 
12 | 0.016 µM |  | 0.39 µM | O=C(CCCOc1ccc2nc3[nH]c(=O)[nH]c3cc2c1)NC1CCCCCC1 | 
13 | 0.0007 µM | 0.006 µM |  | COC(=O)CN(C(=O)CCCOc1ccc2nc3[nH]c(=O)[nH]c3cc2c1)C1CCCCC1 | 
14 |  | > 100 µM |  | Cn1c(=O)[nH]c2nc3ccc(OCCCCC(=O)O)cc3cc21 | 
15 |  | 0.05 µM |  | CN(C(=O)CCCOc1ccc2nc3[nH]c(=O)n(C)c3cc2c1)C1CCCCC1 | 
16 | 0.01 µM |  | 0.18 µM | O=c1[nH]c2cc3cc(OCCCCS(=O)(=O)c4ccccc4)ccc3nc2[nH]1 | 
17 | 3.02 µM | 6.04 µM |  | NC(=O)CCCOc1ccc2nc3[nH]c(=O)[nH]c3cc2c1 | 
18 |  | > 87.5 µM |  | COC(=O)CCCOc1ccc2nc3c(cc2c1)n(C)c(=O)n3C | 
19 | 9.6 µM |  | 0.91 µM | O=C(O)CN(C(=O)CCCOc1ccc2nc3[nH]c(=O)[nH]c3cc2c1)C1CCCCC1 | 
20 |  | > 106 µM |  | Cn1c(=O)[nH]c2nc3ccc(OCCCC(=O)O)cc3cc21 | 
21 | 0.02 µM |  | 0.12 µM | O=C(CCCOc1ccc2nc3[nH]c(=O)[nH]c3cc2c1)NC12C[C@H]3C[C@@H](C1)C[C@@H](C2)C3 | 
22 |  | 0.44 µM |  | CCOC(=O)CCc1ccc2nc3[nH]c(=O)[nH]c3cc2c1 | 
23 | 15.5 µM | 0.42 µM |  | O=C(CCCCc1ccc2nc3[nH]c(=O)[nH]c3cc2c1)N1CCCCC1 | 
24 |  | 2.69 µM |  | COC(=O)C=CC=Cc1ccc2nc3[nH]c(=O)[nH]c3cc2c1 | 
25 |  | 2.95 µM |  | O=c1[nH]c2cc3cc(CCCCCO)ccc3nc2[nH]1 | 

The remaining lines, values behind:

Row | Structure (SMILES) | EC50 [1] | EC50 [3] | EC50 [4] | other results
26 | CC(O)CCCOc1ccc2nc3[nH]c(=O)[nH]c3cc2c1 (stereo unspecified) | 0.1 µM |  |  | EC50 [2]: 0.52 µM
27 | CCOC(=O)CN(C(=O)CCCOc1ccc2nc3[nH]c(=O)[nH]c3cc2c1)C1CCCCC1 |  | 0.02 µM |  | 
28 | COC(=O)CCCOc1ccc2nc3[nH]c(=O)[nH]c3cc2c1 |  |  | 0.066 µM | EC50 [5]: 0.083 µM
29 | O=c1[nH]c2cc3cc(OCCCS(=O)(=O)c4ccccc4)ccc3nc2[nH]1 |  | 0.39 µM |  | 
30 | CN(C(=O)CCCOc1ccc2c(c1)CN1CC(=O)NC1=N2)C1CCCCC1 | 0.44 µM |  | 0.1 µM | 
31 | N#CCCCCOc1ccc2nc3[nH]c(=O)[nH]c3cc2c1 |  | 1.32 µM |  | 
32 | CCOC(=O)C1CCN(C(=O)CCCOc2ccc3nc4[nH]c(=O)[nH]c4cc3c2)CC1 |  | 0.21 µM |  | 
33 | O=C(CCCCc1ccc2nc3[nH]c(=O)[nH]c3cc2c1)NC12C[C@H]3C[C@@H](C1)C[C@@H](C2)C3 | 5.26 µM |  | 0.96 µM | 
34 | CN(C(=O)CCCOc1ccc2nc3[nH]c(=O)[nH]c3cc2c1)C1CCCCCC1 |  | 0.06 µM |  | 
35 | CNC(=O)CCCOc1ccc2nc3[nH]c(=O)[nH]c3cc2c1 | 71.6 µM | 1.33 µM |  | 
36 | O=C(O)CCCCOc1ccc2nc3[nH]c(=O)[nH]c3cc2c1 | > 106 µM | > 106 µM |  | 
37 | CN(C(=O)CCCCOc1ccc2nc3[nH]c(=O)[nH]c3cc2c1)C1CCCCC1 |  | 0.008 µM |  | 
38 | Cn1c(=O)[nH]c2nc3ccc(OCCCC(=O)NC4CCCCC4)cc3cc21 | 7.84 µM | 0.18 µM |  | 
39 | CN(C(=O)CCCOc1ccc2nc3c(cc2c1)[nH]c(=O)n3C)C1CCCCC1 | 33 µM |  | 0.52 µM | 
40 | O=C(CCCOc1ccc2nc3[nH]c(=O)[nH]c3cc2c1)N1CCCCC1 |  |  |  | EC50 (P2Y purinoceptor 12): 0.13 µM
41 | CN(C(=O)CCCOc1ccc2nc3[nH]c(=O)n(C)c3cc2c1)C1CCCCCC1 | 1.22 µM | 0.07 µM |  | 
42 | O=C(CCCOc1ccc2nc3[nH]c(=O)[nH]c3cc2c1)NC1CCCC1 |  | 0.42 µM |  | 
43 | N#CCCCOc1ccc2nc3[nH]c(=O)[nH]c3cc2c1 | 0.6 µM |  | 0.18 µM | 
44 | CN(C(=O)CCCCCOc1ccc2nc3[nH]c(=O)[nH]c3cc2c1)C1CCCCC1 | 0.54 µM |  | 0.02 µM | 
45 | Cn1c(=O)[nH]c2nc3ccc(OCCCS(=O)(=O)c4ccccc4)cc3cc21 |  | 50.3 µM |  | 
46 | CN(C)C(=O)CCCOc1ccc2nc3[nH]c(=O)[nH]c3cc2c1 | 0.19 µM |  |  | 

Row | Structure (SMILES) | EC50 [1] | EC50 [3] | EC50 [4] | other results
47 | O=c1[nH]c2cc3cc(CCCO)ccc3nc2[nH]1 |  | 2.47 µM |  | 
48 | CN(C(=O)CCCCOc1ccc2nc3[nH]c(=O)[nH]c3cc2c1)C1CCCCCC1 | 0.001 µM |  | 0.005 µM | 
49 | COC(=O)CCCOc1ccc2nc3c(cc2c1)[nH]c(=O)n3C | 29.9 µM | 0.36 µM |  | 
50 | CN(C(=O)CCCOc1ccc2nc3c(cc2c1)n(C)c(=O)n3C)C1CCCCC1 |  | 26.7 µM |  | 
51 | O=C(CCCOc1ccc2nc3[nH]c(=O)[nH]c3cc2c1)NC1CCCCC1 |  | 0.04 µM |  | 
52 | COC(=O)CCCCc1ccc2nc3[nH]c(=O)[nH]c3cc2c1 | 3 µM |  | 0.43 µM | 
53 | O=C(O)CCCCc1ccc2nc3[nH]c(=O)[nH]c3cc2c1 | > 112 µM |  | 63.1 µM | 
54 | CC(=O)OCCCCOc1ccc2nc3[nH]c(=O)[nH]c3cc2c1 |  | 0.95 µM |  | 
55 | CCOCCOc1ccc2nc3[nH]c(=O)[nH]c3cc2c1 |  | 4.84 µM |  | 
56 | CN(C(=O)CCCCOc1ccc2nc3[nH]c(=O)n(C)c3cc2c1)C1CCCCC1 |  | 0.15 µM |  | 
57 | Cn1c(=O)[nH]c2cc3cc(OCCCC(=O)O)ccc3nc21 | > 26.5 µM |  | 1.66 µM | 
58 | CN(C(=O)CCCOc1ccc2nc3[nH]c(=O)[nH]c3cc2c1)C1CCCCC1 | 0.007 µM |  |  | 
59 | CCOC(=O)CCCOc1ccc2nc3[nH]c(=O)[nH]c3cc2c1 | 0.038 µM |  | 0.63 µM | 
60 | CCOC(=O)COc1ccc2nc3[nH]c(=O)[nH]c3cc2c1 |  | 24.3 µM |  | 
61 | O=C(O)COc1ccc2nc3[nH]c(=O)[nH]c3cc2c1 |  | 1.91 µM |  | 
62 | O=C(O)C1CCN(C(=O)CCCOc2ccc3nc4[nH]c(=O)[nH]c4cc3c2)CC1 | 45.3 µM |  | 0.38 µM | 
63 | CC(=O)OCCCOc1ccc2nc3[nH]c(=O)[nH]c3cc2c1 |  | 0.33 µM |  | 
64 | COC(=O)CCCCOc1ccc2nc3[nH]c(=O)n(C)c3cc2c1 |  | 9.11 µM |  | 
65 | O=c1[nH]c2cc3cc(OCCCCc4nnn[nH]4)ccc3nc2[nH]1 | 51 µM | 5.4 µM |  | 
66 | CCOC(=O)C=Cc1ccc2nc3[nH]c(=O)[nH]c3cc2c1 |  | 0.44 µM |  | 
